Measured values: article PMC4948680 (European journal of pharmaceutical sciences : official …, 2016)

Legend:
A431-CCK2R(±) xenografts = assay: in vivo; design: species or system SCID mice; conditions: SCID, mouse, iv, 10 pmol peptide, 4 h
Description: (§1) The human epidermoid A431 cell line transfected to stably express the CCK2R (A431-CCK2R(+)) or devoid of CCK2R expression (A431-CCK2R(−)) used for tumour induction in this work was a gift from Prof. O. Boerman (Department of Nuclear Medicine, Radboud University Nijmegen Medical Centre, Nijmegen, The Netherlands) and Prof. L. Aloj (Istituto di Biostrutture e Bioimmagini, Consiglio Nazionale delle Ricerche, Naples, Italy) and cells were cultured as previously reported ([Aloj et al., 2004]). Suspensions of freshly harvested A431-CCK2R(±) cells (~150 μL, 1.6 × 10^7/1.4 × 10^7) in normal saline were subcutaneously injected in the flanks of mice.
(§2) Animals were euthanized in groups of four at 1 h, 4 h and 24 h pi; in a separate 4-h group animals received gelofusine (100 μL) together with the radioligand. […] Mice were dissected and samples of blood and tissues of interest as well as tumours were excised, weighted and counted for radioactivity in the gamma counter. Data was calculated as percent injected dose per gram tissue (%ID/g) with the aid of suitable standards of the injected dose and represent mean ± SD. In all above experiments, analysis of the solution used in the biodistribution experiment was conducted prior to and after completion of all animal injections.
(§3) Statistical analysis using the unpaired two-tailed Student’s t-test was performed to compare values between A431-CCK2R(+) and A431-CCK2R(−) tumours, as well as kidney, stomach and A431-CCK2R(+) tumour values between 4 h control and gelofusine-treated animal groups; values P < 0.05 were considered statistically significant (Table 2). The pharmacokinetic profile was determined by fitting an exponential curve through the organ time-activity data according to the least-squares method. The number of exponentials in the fitted curve was analysed according to the Aikake Information Criterion (AICc). All fitting was performed with Graphpad Prism version 5.

in vivo = assay: in vivo; design: species or system SCID mice; conditions: SCID, mouse, iv, 10 pmol peptide, total radioactivity, %ID/g tissue
Description: as §1, §2, §3

**Q.** For `CSCC[C@H](NC(=O)[C@H](Cc1c[nH]c2ccccc12)NC(=O)CNC(=O)[C@H](Cc1ccc(O)cc1)NC(=O)[C@H](C)NC(=O)[C@@H](CCC(=O)O)NC(=O)[C@@H](CCC(=O)O)NC(=O)[C@@H](CCC(=O)O)NC(=O)[C@@H](CCC(=O)O)NC(=O)[C@@H](CCC(=O)O)NC(=O)[C@@H](CCC(=O)O)NC(=O)CN1CCN(CC(=O)O)CCN(CC(=O)O)CCN(CC(=O)O)CC1)C(=O)N[C@@H](CC(=O)O)C(=O)N[C@@H](Cc1ccccc1)C(N)=O` [^111In-CP04, ^111In-DOTA-(DGlu)6-Ala-Tyr-Gly-Trp-Met-Asp-Phe-NH2, metal not drawn], which “%ID/g tissue, Intestines” value (A431-CCK2R(±) xenografts) is on record?
**A.** 0.29 ± 0.18 %ID/g

**Q.** What about the “%ID/g tissue, Kidneys” value (A431-CCK2R(±) xenografts) of the same compound?
**A.** 6.52 %ID/g

**Q.** And the “%ID/g tissue, Liver” value (A431-CCK2R(±) xenografts)?
**A.** 0.12 ± 0.02 %ID/g

**Q.** What about the “%ID/g tissue, Stomach” value (A431-CCK2R(±) xenografts) of the same compound?
**A.** 1.63 ± 0.20 %ID/g

**Q.** And the “%ID/g tissue, Tumour(+) (A431-CCK2R(+))” value (A431-CCK2R(±) xenografts)?
**A.** 8.49 %ID/g

**Q.** And the tissue uptake at 1 h (in vivo; Blood)?
**A.** 0.55 ± 0.17 %ID/g

**Q.** And the tissue uptake at 4 h (in vivo; Blood)?
**A.** 0.02 ± 0.01 %ID/g

**Q.** And the tissue uptake at 1 h (in vivo; Femur)?
**A.** 0.96 ± 0.46 %ID/g

**Q.** What about the tissue uptake at 4 h (in vivo; Femur) of the same compound?
**A.** 0.3 ± 0.22 %ID/g

**Q.** What about the tissue uptake at 24 h (in vivo; Femur) of the same compound?
**A.** 0.24 ± 0.09 %ID/g

**Q.** And the tissue uptake at 1 h (in vivo; Heart)?
**A.** 0.24 ± 0.08 %ID/g

**Q.** What about the tissue uptake at 4 h (in vivo; Heart) of the same compound?
**A.** 0.02 ± 0.01 %ID/g

**Q.** What about the tissue uptake at 24 h (in vivo; Heart) of the same compound?
**A.** 0.02 %ID/g

**Q.** What about the tissue uptake at 1 h (in vivo; Intestines) of the same compound?
**A.** 0.36 ± 0.13 %ID/g

**Q.** And the tissue uptake at 4 h (in vivo; Intestines)?
**A.** 0.22 ± 0.08 %ID/g

**Q.** And the tissue uptake at 24 h (in vivo; Intestines)?
**A.** 0.1 ± 0.04 %ID/g

**Q.** What about the tissue uptake at 1 h (in vivo; Kidneys) of the same compound?
**A.** 5.53 ± 0.78 %ID/g

**Q.** And the tissue uptake at 4 h (in vivo; Kidneys)?
**A.** 5.55 ± 0.94 %ID/g

**Q.** And the tissue uptake at 24 h (in vivo; Kidneys)?
**A.** 3.29 ± 0.56 %ID/g

**Q.** What about the tissue uptake at 1 h (in vivo; Liver) of the same compound?
**A.** 0.38 ± 0.12 %ID/g

**Q.** What about the tissue uptake at 24 h (in vivo; Liver) of the same compound?
**A.** 0.01 ± 0.01 %ID/g

**Q.** What about the tissue uptake at 1 h (in vivo; Lung) of the same compound?
**A.** 0.47 ± 0.13 %ID/g

**Q.** And the tissue uptake at 4 h (in vivo; Lung)?
**A.** 0.04 ± 0.01 %ID/g

**Q.** What about the tissue uptake at 24 h (in vivo; Lung) of the same compound?
**A.** 0.03 ± 0.01 %ID/g

**Q.** And the tissue uptake at 4 h (in vivo; Muscle)?
**A.** 0.03 ± 0.02 %ID/g

**Q.** What about the tissue uptake at 24 h (in vivo; Muscle) of the same compound?
**A.** 0.01 ± 0.01 %ID/g

**Q.** And the tissue uptake at 1 h (in vivo; Pancreas)?
**A.** 0.23 ± 0.08 %ID/g

**Q.** What about the tissue uptake at 4 h (in vivo; Pancreas) of the same compound?
**A.** 0.06 ± 0.01 %ID/g

**Q.** And the tissue uptake at 24 h (in vivo; Pancreas)?
**A.** 0.05 ± 0.01 %ID/g

**Q.** What about the tissue uptake at 4 h (in vivo; Spleen) of the same compound?
**A.** 0.04 ± 0.02 %ID/g

**Q.** And the tissue uptake at 24 h (in vivo; Spleen)?
**A.** 0.05 ± 0.01 %ID/g

**Q.** What about the tissue uptake at 1 h (in vivo; Stomach) of the same compound?
**A.** 2.6 ± 0.48 %ID/g

**Q.** And the tissue uptake at 4 h (in vivo; Stomach)?
**A.** 2.09 ± 0.32 %ID/g

**Q.** What about the tissue uptake at 24 h (in vivo; Stomach) of the same compound?
**A.** 1.58 ± 0.15 %ID/g

**Q.** And the tissue uptake at 1 h (in vivo; Tumour(+) (A431-CCK2R(+)))?
**A.** 12.6 ± 1.73 %ID/g

**Q.** What about the tissue uptake at 4 h (in vivo; Tumour(+) (A431-CCK2R(+))) of the same compound?
**A.** 9.24 ± 1.35 %ID/g

**Q.** What about the tissue uptake at 24 h (in vivo; Tumour(+) (A431-CCK2R(+))) of the same compound?
**A.** 4.98 ± 0.56 %ID/g

**Q.** And the tissue uptake at 1 h (in vivo; Tumour(–) (A431-CCK2R(–)))?
**A.** 1.07 ± 0.29 %ID/g

**Q.** What about the tissue uptake at 24 h (in vivo; Tumour(–) (A431-CCK2R(–))) of the same compound?
**A.** 0.1 ± 0.02 %ID/g
